Test results published in paper PMC11062899, “De novo development of small cyclic peptides that are orally bioavailable” (Nature Chemical Biology, 2023).
Several values for one entry are separate records, joined by “and”; a condition that tells them apart may be missing. Equal entries are not always repeated. Where two headings read alike, the source gives them in different places.

What was measured:
rat α-thrombin = biological target: T1, rat α-thrombin (Rattus norvegicus, UniProt P18292); assay: Protease inhibition, Ki for rat α-thrombin (fluorogenic substrate Z-Gly-Gly-Arg-AMC); format: biochemical; details: for slope normalized to DMSO, rat alpha thrombin inhibition / Rat alpha thrombin inhibition, slope normalized to DMSO: replicates R1-R3
T1 construct: rat α-thrombin (Molecular Innovations) were used at final concentrations of 2 nM and 3 nM; purchased Molecular Innovations
Procedure, shortened: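 Inhibition was measured as AMC fluorescence from 50 μM substrate, monitored for 30 min at 25 °C, relative to a peptide-free control. Human and rat enzymes were present at 2 nM and 3 nM final, respectively, in 50 mM Tris-HCl pH 7.4, 150 mM NaCl, 10 mM MgCl2, 1 mM CaCl2. Ki derives from fitted IC50 via Cheng–Prusoff.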

porcine pepsin = biological target: T2, porcine pepsin (Sus scrofa, UniProt P00791); assay: Peptide stability in simulated gastric fluid (SGF); format: in vitro ADME; details: pig, simulated gi fluid; 8 h, 37 °C, pH 1.2; read-out: Proteolytic stability: SGF (8 h) % remaining
T2 construct: 0.32 g of porcine pepsin (Sigma-Aldrich, P7125) was dissolved under gentle agitation; purchased Sigma-Aldrich P7125
Procedure, shortened: (§1)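 Peptide from a 1 mM DMSO stock was added to fluid pre-warmed at 37 °C. SGF was pH 1.2 NaCl with porcine pepsin (0.32 g per 100 ml), and SIF was pH 6.8 potassium phosphate with porcine pancreatin (1 g per 100 ml). Supernatant peptide was quantified by LC–MS, with residual expressed as T1/T0.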

[1] = Peptide stability in simulated intestinal fluid (SIF); format: in vitro ADME, porcine; details: pig, simulated gi fluid; 8 h, 37 °C, pH 6.8; read-out: Proteolytic stability: SIF (8 h) % remaining
Procedure, shortened: as §1

[2] = Passive artificial membrane permeability (PAMPA);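 for Permeability% Average: top well sample relative to theoretical equilibrium sample by TIC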
[3] = Metabolic stability in rat liver microsomes (RLMs); details: for TIC value of compound, metabolic stability RLM: replicates R1-R3; for microsomal CLint / half-life: rat, microsomes

T2 sequence (P00791 60-385): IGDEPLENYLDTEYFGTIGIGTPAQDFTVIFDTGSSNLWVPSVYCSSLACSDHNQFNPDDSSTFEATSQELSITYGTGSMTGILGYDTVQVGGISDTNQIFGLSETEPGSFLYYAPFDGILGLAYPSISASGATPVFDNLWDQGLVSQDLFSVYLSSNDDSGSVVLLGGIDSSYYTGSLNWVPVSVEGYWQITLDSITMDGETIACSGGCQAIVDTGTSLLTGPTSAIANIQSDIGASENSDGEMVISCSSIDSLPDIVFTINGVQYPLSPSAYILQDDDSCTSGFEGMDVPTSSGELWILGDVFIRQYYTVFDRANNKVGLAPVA

- slope normalized to DMSO, rat alpha thrombin inhibition (rat α-thrombin; peptide 1.00E+02 uM): 5.4 and 5.2 and 4.3
- slope normalized to DMSO, rat alpha thrombin inhibition (rat α-thrombin; peptide 1.19E-05 uM): 102.6 and 102.2 and 91.2
- slope normalized to DMSO, rat alpha thrombin inhibition (rat α-thrombin; peptide 1.22E-02 uM): 54.9 and 61.5 and 61.2
- slope normalized to DMSO, rat alpha thrombin inhibition (rat α-thrombin; peptide 1.25E+01 uM): 7.2 and 11.2 and 5.0
- slope normalized to DMSO, rat alpha thrombin inhibition (rat α-thrombin; peptide 1.53E-03 uM): 90.8 and 92.4 and 84.4
- slope normalized to DMSO, rat alpha thrombin inhibition (rat α-thrombin; peptide 1.56E+00 uM): 8.6 and 7.9 and 7.3
- slope normalized to DMSO, rat alpha thrombin inhibition (rat α-thrombin; peptide 1.91E-04 uM): 101.3 and 100.0 and 99.0
- slope normalized to DMSO, rat alpha thrombin inhibition (rat α-thrombin; peptide 1.95E-01 uM): 18.2 and 17.7 and 18.1
- slope normalized to DMSO, rat alpha thrombin inhibition (rat α-thrombin; peptide 2.38E-05 uM): 104.9 and 102.6 and 101.9
- slope normalized to DMSO, rat alpha thrombin inhibition (rat α-thrombin; peptide 2.44E-02 uM): 50.2 and 48.9 and 44.8
- slope normalized to DMSO, rat alpha thrombin inhibition (rat α-thrombin; peptide 2.50E+01 uM): 4.6 and 8.1 and 4.9
- slope normalized to DMSO, rat alpha thrombin inhibition (rat α-thrombin; peptide 3.05E-03 uM): 90.9 and 88.2 and 90.2
- slope normalized to DMSO, rat alpha thrombin inhibition (rat α-thrombin; peptide 3.12E+00 uM): 7.5 and 10.1 and 7.1
- slope normalized to DMSO, rat alpha thrombin inhibition (rat α-thrombin; peptide 3.81E-04 uM): 96.2 and 101.3 and 91.7
- slope normalized to DMSO, rat alpha thrombin inhibition (rat α-thrombin; peptide 3.91E-01 uM): 12.4 and 9.5 and 6.1
- slope normalized to DMSO, rat alpha thrombin inhibition (rat α-thrombin; peptide 4.77E-05 uM): 105.1 and 89.9 and 85.4
- slope normalized to DMSO, rat alpha thrombin inhibition (rat α-thrombin; peptide 4.88E-02 uM): 32.8 and 33.4 and 28.7
- slope normalized to DMSO, rat alpha thrombin inhibition (rat α-thrombin; peptide 5.00E+01 uM): 3.1 and 5.6 and 0.5
- slope normalized to DMSO, rat alpha thrombin inhibition (rat α-thrombin; peptide 6.10E-03 uM): 72.5 and 78.4 and 84.7
- slope normalized to DMSO, rat alpha thrombin inhibition (rat α-thrombin; peptide 6.25E+00 uM): 7.7 and -0.5
- slope normalized to DMSO, rat alpha thrombin inhibition (rat α-thrombin; peptide 7.63E-04 uM): 95.8 and 97.3 and 89.3
- slope normalized to DMSO, rat alpha thrombin inhibition (rat α-thrombin; peptide 7.81E-01 uM): 10.1 and 10.3 and 8.9
- slope normalized to DMSO, rat alpha thrombin inhibition (rat α-thrombin; peptide 9.54E-05 uM): 96.1 and 92.0 and 94.2
- slope normalized to DMSO, rat alpha thrombin inhibition (rat α-thrombin; peptide 9.77E-02 uM): 27.3 and 26.5 and 22.9
- Rat alpha thrombin inhibition, slope normalized to DMSO (rat α-thrombin; peptide concentration 1.00E+02 uM): 5.4 and 5.2 and 4.3
- Rat alpha thrombin inhibition, slope normalized to DMSO (rat α-thrombin; peptide concentration 1.19E-05 uM): 102.6 and 102.2 and 91.2
- Rat alpha thrombin inhibition, slope normalized to DMSO (rat α-thrombin; peptide concentration 1.22E-02 uM): 54.9 and 61.5 and 61.2
- Rat alpha thrombin inhibition, slope normalized to DMSO (rat α-thrombin; peptide concentration 1.25E+01 uM): 7.2 and 11.2 and 5.0
- Rat alpha thrombin inhibition, slope normalized to DMSO (rat α-thrombin; peptide concentration 1.53E-03 uM): 90.8 and 92.4 and 84.4
- Rat alpha thrombin inhibition, slope normalized to DMSO (rat α-thrombin; peptide concentration 1.56E+00 uM): 8.6 and 7.9 and 7.3
- Rat alpha thrombin inhibition, slope normalized to DMSO (rat α-thrombin; peptide concentration 1.91E-04 uM): 101.3 and 100.0 and 99.0
- Rat alpha thrombin inhibition, slope normalized to DMSO (rat α-thrombin; peptide concentration 1.95E-01 uM): 18.2 and 17.7 and 18.1
- Rat alpha thrombin inhibition, slope normalized to DMSO (rat α-thrombin; peptide concentration 2.38E-05 uM): 104.9 and 102.6 and 101.9
- Rat alpha thrombin inhibition, slope normalized to DMSO (rat α-thrombin; peptide concentration 2.44E-02 uM): 50.2 and 48.9 and 44.8
- Rat alpha thrombin inhibition, slope normalized to DMSO (rat α-thrombin; peptide concentration 2.50E+01 uM): 4.6 and 8.1 and 4.9
- Rat alpha thrombin inhibition, slope normalized to DMSO (rat α-thrombin; peptide concentration 3.05E-03 uM): 90.9 and 88.2 and 90.2
- Rat alpha thrombin inhibition, slope normalized to DMSO (rat α-thrombin; peptide concentration 3.12E+00 uM): 7.5 and 10.1 and 7.1
- Rat alpha thrombin inhibition, slope normalized to DMSO (rat α-thrombin; peptide concentration 3.81E-04 uM): 96.2 and 101.3 and 91.7
- Rat alpha thrombin inhibition, slope normalized to DMSO (rat α-thrombin; peptide concentration 3.91E-01 uM): 12.4 and 9.5 and 6.1
- Rat alpha thrombin inhibition, slope normalized to DMSO (rat α-thrombin; peptide concentration 4.77E-05 uM): 105.1 and 89.9 and 85.4
- Rat alpha thrombin inhibition, slope normalized to DMSO (rat α-thrombin; peptide concentration 4.88E-02 uM): 32.8 and 33.4 and 28.7
- Rat alpha thrombin inhibition, slope normalized to DMSO (rat α-thrombin; peptide concentration 5.00E+01 uM): 3.1 and 5.6 and 0.5
- Rat alpha thrombin inhibition, slope normalized to DMSO (rat α-thrombin; peptide concentration 6.10E-03 uM): 72.5 and 78.4 and 84.7
- Rat alpha thrombin inhibition, slope normalized to DMSO (rat α-thrombin; peptide concentration 6.25E+00 uM): 7.7 and -0.5
- Rat alpha thrombin inhibition, slope normalized to DMSO (rat α-thrombin; peptide concentration 7.63E-04 uM): 95.8 and 97.3 and 89.3
- Rat alpha thrombin inhibition, slope normalized to DMSO (rat α-thrombin; peptide concentration 7.81E-01 uM): 10.1 and 10.3 and 8.9
- Rat alpha thrombin inhibition, slope normalized to DMSO (rat α-thrombin; peptide concentration 9.54E-05 uM): 96.1 and 92.0 and 94.2
- Rat alpha thrombin inhibition, slope normalized to DMSO (rat α-thrombin; peptide concentration 9.77E-02 uM): 27.3 and 26.5 and 22.9
- Ki (rat α-thrombin; purified peptide, mean and s.d. of three measurements, read-out: Ki rat α-thrombin): 11.1 ± 1.4 nM
- IC50 (rat α-thrombin; single replicates R1-R3, read-out: Rat alpha thrombin inhibition, IC50): 17.1 nM and 20.2 nM and 23.1 nM
- Ki (rat α-thrombin; single replicates R1-R3, read-out: Rat alpha thrombin inhibition, Ki): 9.46 nM and 11.2 nM and 12.8 nM
- remaining at 8 h (porcine pepsin): 101 ± 12%
- remaining at 8 h [1]: 91 ± 9%
- PAMPA permeability: % permeability ([2]; 50 μM, 12–18 h, acceptor concentration relative to equilibrium): 66 ± 19%
- Permeability% (single replicates R1–R3) ([2]; 50 μM, 12 h (Fig. 6d)): 52.91% and 57.15% and 54.20%
- Permeability% Average ([2]; 50 μM, 12 h (Fig. 6d)): 54.8%
- Permeability% (single replicates R1–R3) ([2]; 50 μM, 13 h (Fig. 5d)): 79.02% and 44.84% and 74.28%
- Permeability% Average ([2]; 50 μM, 13 h (Fig. 5d)): 66.0%
- Papp at 50 μM ([2]; PAMPA, pH 7.4): 9.77 ×10⁻⁶ cm/s
- TIC value of compound, metabolic stability RLM ([3]; 0 min): 15121279 (2×) and 12636158
- TIC value of compound, metabolic stability RLM ([3]; 5 min): 12214985 and 10185041 and 10498454
- TIC value of compound, metabolic stability RLM ([3]; 15 min): 8936637 and 6181065 and 6718551
- TIC value of compound, metabolic stability RLM ([3]; 30 min): 4407741 and 2845968 and 2692424
- TIC value of compound, metabolic stability RLM ([3]; 60 min): 749207 and 393357 and 268692
- Half Life (min) in RLMs (single replicates R1–R3) ([3]; Fig. 5e source data): 16.74 min and 14.9 min
- Half Life, RLM ([3]; individual replicates R1-R3): 16.74 min and 14.9 min
- microsomal CLint ([3]; CL (ul/min/mg protein) in RLMs (single replicates R1–R3), Fig. 5e source data): 80.1 µL/min/mg
- microsomal CLint ([3]; Clearance (CL) in RLMs, calculated from half-life, mean and s.d. of three measurements): 85 ± 6 µL/min/mg
- half-life ([3]; Half Life (min) in RLMs (single replicates R1–R3), Fig. 5e source data): 17.3 min
- half-life ([3]; Half Life, RLM, individual replicates R1-R3): 17.3 min
- microsomal CLint ([3]; pH 7.4, CL (ul/min/mg protein) in RLMs Average, Fig. 5e source data): 85.3 µL/min/mg
- half-life ([3]; pH 7.4, Metabolic stability: Half life T1/2 (min), RLMs, mean and SD, three measurements): 16.3 ± 1 min
SMILES: O=C1C[C@H]2CCCN2C(=O)[C@H](Cc2ccccc2)NC(=O)[C@@H](NC(=O)c2ccc(Cl)s2)CCC=CCCCCN1 [peptide 43]
- CL (ul/min/mg protein) in RLMs (single replicates R1–R3) ([3]; Fig. 5e source data): 82.7957 ul/min/mg protein and 93.0201 ul/min/mg protein and 80.07 ul/min/mg protein and 82.80 ul/min/mg protein and 93.02 ul/min/mg protein
